PubChem BioAssay AID192 (DTP/NCI, 2004)
“And” between values parts separate entries of the source, which are not always exact repeats. Identical values can stand only once. Inconclusive results and toxic doses are left out.

Tested on: BDF1 mice, B16 melanoma ip, median survival T/C
Experiment: NCI In Vivo Anticancer Drug Screen. Data for tumor model B16 Melanoma (intraperitoneal) in B6D2F1 (BDF1) mice
Settings: endpoint: median survival time, higher = longer survival
Summary of the method: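 Transplantable tumor model; survival or tumor size measured; reported as T/C, treated over vehicle control.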

[1] = dose: 100.0 mg/kg/injection, schedule: Q04DX003 (ip), vehicle: Klucel (hydroxypropylcellulose) (HPC)
[2] = dose: 3.12 mg/kg/injection, schedule: Q01DX009 (ip), vehicle: Klucel (hydroxypropylcellulose) (HPC)
[3] = dose: 50.0 mg/kg/injection, schedule: Q01DX009 (ip), vehicle: saline with Tween-80
[4] = dose: 100.0 mg/kg/injection, schedule: Q01DX009 (ip), vehicle: saline with Tween-80
[5] = dose: 200.0 mg/kg/injection, schedule: Q01DX009 (ip), vehicle: saline with Tween-80
[6] = dose: 100.0 mg/kg/injection, schedule: Q01DX009 (ip), vehicle: Klucel (hydroxypropylcellulose) (HPC)
[7] = dose: 200.0 mg/kg/injection, schedule: Q01DX009 (ip), vehicle: Klucel (hydroxypropylcellulose) (HPC)
[8] = dose: 400.0 mg/kg/injection, schedule: Q01DX009 (ip), vehicle: Klucel (hydroxypropylcellulose) (HPC)
[9] = dose: 25.0 mg/kg/injection, schedule: Q01DX009 (ip), vehicle: Klucel (hydroxypropylcellulose) (HPC)
[10] = dose: 50.0 mg/kg/injection, schedule: Q01DX009 (ip), vehicle: Klucel (hydroxypropylcellulose) (HPC)
[11] = dose: 12.5 mg/kg/injection, schedule: Q01DX009 (ip), vehicle: Klucel (hydroxypropylcellulose) (HPC)
[12] = dose: 25.0 mg/kg/injection, schedule: Q04DX003 (ip), vehicle: Klucel (hydroxypropylcellulose) (HPC)
[13] = dose: 50.0 mg/kg/injection, schedule: Q04DX003 (ip), vehicle: Klucel (hydroxypropylcellulose) (HPC)
[14] = dose: 50.0 mg/kg/injection, schedule: Q01DX009 (ip), vehicle: saline
[15] = dose: 100.0 mg/kg/injection, schedule: Q01DX009 (ip), vehicle: saline

## C=C(C)C12OC3(CCCCCCCCC)OC1C1C4OC4(COC(=O)CCCCCCCCCCCCCCC)C(O)C4(O)C(=O)C(C)=CC4C1(O3)C(C)C2OC(=O)c1ccccc1 (configuration not stated)
dose: 0.5 micrograms/kg/injection, schedule: Q01DX009 (ip), vehicle: saline
  T/C: 102 % of control
dose: 1.0 micrograms/kg/injection, schedule: Q01DX009 (ip), vehicle: saline
  T/C: 105 % of control
dose: 1.9 micrograms/kg/injection, schedule: Q01DX009 (ip), vehicle: saline
  T/C: 91 % of control
dose: 3.8 micrograms/kg/injection, schedule: Q01DX009 (ip), vehicle: saline
  T/C: 110 % of control
dose: 7.5 micrograms/kg/injection, schedule: Q01DX009 (ip), vehicle: saline
  T/C: 91 % of control
dose: 15.0 micrograms/kg/injection, schedule: Q01DX009 (ip), vehicle: saline
  T/C: 100 % of control
dose: 30.0 micrograms/kg/injection, schedule: Q01DX009 (ip), vehicle: saline
  T/C: 100 % of control

## CC(=O)NNC(=O)c1cnccn1
dose: 22.5 mg/kg/injection, schedule: Q01DX009 (ip), vehicle: saline
  T/C: 97 % of control
dose: 45.0 mg/kg/injection, schedule: Q01DX009 (ip), vehicle: saline
  T/C: 97 % of control
dose: 90.0 mg/kg/injection, schedule: Q01DX009 (ip), vehicle: saline
  T/C: 90 % of control

## O=c1sc(N=Nc2ccccc2)nn1-c1ccccc1
[1]
  T/C: 94 % of control
dose: 200.0 mg/kg/injection, schedule: Q04DX003 (ip), vehicle: Klucel (hydroxypropylcellulose) (HPC)
  T/C: 89 % of control

## C[CH2][Pb]([CH2]C)([CH2]C)[N]1C(=O)c2ccccc2C1=O
dose: 1.56 mg/kg/injection, schedule: Q01DX009 (ip), vehicle: Klucel (hydroxypropylcellulose) (HPC)
  T/C: 112 % of control
[2]
  T/C: 109 % of control

## COC1=C2CC(C)CC(OC)C(O)C(C)/C=C(\C)C(OC(N)=O)C(OC)/C=C\C=C(/C)C(=O)NC(=C(/C=N/N(C)C)C1=O)C2=O (configuration not stated)
dose: 12.5 mg/kg/injection, schedule: Q01DX005 (ip), vehicle: other
  T/C: 101 % of control
dose: 25.0 mg/kg/injection, schedule: Q01DX005 (ip), vehicle: other
  T/C: 101 % of control
dose: 50.0 mg/kg/injection, schedule: Q01DX005 (ip), vehicle: other
  T/C: 101 % of control
dose: 100.0 mg/kg/injection, schedule: Q01DX005 (ip), vehicle: other
  T/C: 97 % of control
dose: 200.0 mg/kg/injection, schedule: Q01DX005 (ip), vehicle: other
  T/C: 96 % of control

## CCCCCCCCCC(=O)OC(C)C(=O)N(CCCC)CCCC (configuration not stated)
dose: 25.0 mg/kg/injection, schedule: Q01DX009 (ip), vehicle: saline with Tween-80
  T/C: 98 % of control
[3]
  T/C: 97 % of control
[4]
  T/C: 88 % of control

## O=S(=O)(Nc1ccc(O)cc1)c1ccccc1
[4]
  T/C: 97 % of control
[5]
  T/C: 93 % of control
dose: 400.0 mg/kg/injection, schedule: Q01DX009 (ip), vehicle: saline with Tween-80
  T/C: 90 % of control

## COc1ccc(C(CC(=O)c2ccc3c(c2)OCO3)C(=O)O)cc1OC (configuration not stated)
[6]
  T/C: 96 % of control
[7]
  T/C: 100 % of control
[8]
  T/C: 100 % of control

## CC(C)C(NC=O)C(=O)O (configuration not stated)
[3]
  T/C: 101 % of control
[4]
  T/C: 97 % of control
[5]
  T/C: 92 % of control

## Nc1ccc(Nc2ccc([N+](=O)[O-])cc2[N+](=O)[O-])cc1
dose: 50.0 mg/kg/injection, schedule: Q04DX003 (ip), vehicle: gum acacia
  T/C: 104 % of control
dose: 100.0 mg/kg/injection, schedule: Q04DX003 (ip), vehicle: gum acacia
  T/C: 97 % of control
dose: 200.0 mg/kg/injection, schedule: Q04DX003 (ip), vehicle: gum acacia
  T/C: 95 % of control

## [O-]c1c[n+](C23CCC(c4ccccc42)c2ccccc23)no1
dose: 75.0 mg/kg/injection, schedule: Q01DX009 (ip), vehicle: Klucel (hydroxypropylcellulose) (HPC)
  T/C: 102 % of control
dose: 150.0 mg/kg/injection, schedule: Q01DX009 (ip), vehicle: Klucel (hydroxypropylcellulose) (HPC)
  T/C: 100 % of control
dose: 300.0 mg/kg/injection, schedule: Q01DX009 (ip), vehicle: Klucel (hydroxypropylcellulose) (HPC)
  T/C: 108 % of control

## COc1cc2cccc(OC)c(=O)c2c(O)c1OC
[9]
  T/C: 97 % of control
[10]
  T/C: 105 % of control
[6]
  T/C: 97 % of control

## C1CCC2OCCOCCOC3CCCCC3OCCOCCOC2C1 (configuration not stated)
[2]
  T/C: 91 % of control and 95 % of control
dose: 6.25 mg/kg/injection, schedule: Q01DX009 (ip), vehicle: Klucel (hydroxypropylcellulose) (HPC)
  T/C: 95 % of control and 107 % of control
[11]
  T/C: 106 % of control and 111 % of control
[9]
  T/C: 108 % of control and 121 % of control
[10]
  T/C: 98 % of control

## CCCCNC(C)C1(O)Cc2c(O)c3c(c(O)c2C(OC2CC(N)C(O)C(C)O2)C1)C(=O)c1c(OC)cccc1C3=O (configuration not stated)
dose: 50.0 mg/kg/injection, schedule: Q01DX001 (ip), vehicle: water
  T/C: 114 % of control and 181 % of control and 204 % of control
dose: 100.0 mg/kg/injection, schedule: Q01DX001 (ip), vehicle: water
  T/C: 114 % of control and 263 % of control and 292 % of control
dose: 200.0 mg/kg/injection, schedule: Q01DX001 (ip), vehicle: water
  T/C: 117 % of control and 217 % of control and 293 % of control
dose: 400.0 mg/kg/injection, schedule: Q01DX001 (ip), vehicle: water
  T/C: 89 % of control

## CC(NC(=O)C1CCCN1C(=O)OCc1ccccc1)C(=O)O (configuration not stated)
[3]
  T/C: 91 % of control
[4]
  T/C: 90 % of control

## CN(Cc1ccccc1)Cc1ccccc1
[9]
  T/C: 96 % of control
[12]
  T/C: 100 % of control
[10]
  T/C: 100 % of control
[13]
  T/C: 97 % of control
[6]
  T/C: 100 % of control
[1]
  T/C: 97 % of control

## c1ccc(COCCNCCOCc2ccccc2)cc1
[11]
  T/C: 100 % of control
[9]
  T/C: 90 % of control
[10]
  T/C: 103 % of control

## CCOC(=O)c1[nH]c(C)nc1/N=N/N(C)C
dose: 12.5 mg/kg/injection, schedule: Q01DX009 (ip), vehicle: saline
  T/C: 111 % of control
dose: 25.0 mg/kg/injection, schedule: Q01DX009 (ip), vehicle: saline
  T/C: 110 % of control
[14]
  T/C: 111 % of control
[15]
  T/C: 123 % of control

## C[C@H](CCC(=O)O)[C@H]1CC[C@H]2[C@@H]3[C@H](O)C[C@@H]4C[C@H](O)CC[C@]4(C)[C@H]3C[C@H](O)[C@]12C (tested in a mixture with another compound)
[14]
  T/C: 102 % of control
[15]
  T/C: 109 % of control
dose: 200.0 mg/kg/injection, schedule: Q01DX009 (ip), vehicle: saline
  T/C: 111 % of control

## CC[CH2][Pb]([Cl])([CH2]CC)[CH2]CC
dose: 0.09 mg/kg/injection, schedule: Q01DX009 (ip), vehicle: DMSO
  T/C: 100 % of control
dose: 0.18 mg/kg/injection, schedule: Q01DX009 (ip), vehicle: DMSO
  T/C: 92 % of control
dose: 0.37 mg/kg/injection, schedule: Q01DX009 (ip), vehicle: DMSO
  T/C: 95 % of control
dose: 0.75 mg/kg/injection, schedule: Q01DX009 (ip), vehicle: DMSO
  T/C: 95 % of control
dose: 1.5 mg/kg/injection, schedule: Q01DX009 (ip), vehicle: DMSO
  T/C: 92 % of control

## CC(=O)CC(=O)Nc1cccc(Cl)c1C
[10]
  T/C: 103 % of control
[6]
  T/C: 96 % of control
[7]
  T/C: 106 % of control

## Cc1[nH]ccc2c(C)c3nc4ccccc4c3cc12
[9]
  T/C: 161 % of control

## O=S(=O)(Nc1ccc(F)cc1)c1ccccc1
[6]
  T/C: 96 % of control
[7]
  T/C: 99 % of control
[8]
  T/C: 97 % of control

## O=C(CBr)c1ccc(-c2ccccc2)cc1
dose: 12.5 mg/kg/injection, schedule: Q04DX003 (ip), vehicle: Klucel (hydroxypropylcellulose) (HPC)
  T/C: 88 % of control
[12]
  T/C: 102 % of control
[10]
  T/C: 93 % of control
[13]
  T/C: 94 % of control

## COc1ccc(Cl)cc1NC(=O)c1ccccc1Cl
[6]
  T/C: 102 % of control
[7]
  T/C: 108 % of control
[8]
  T/C: 100 % of control

## COc1ccc(Cl)cc1NC(=O)c1ccccc1C(=O)O
[6]
  T/C: 100 % of control
[7]
  T/C: 94 % of control

## C=C1C(=O)O[C@@H]2C[C@@H](C)[C@@H]3[C@@H](OC4OC(COC(C)=O)C(O)C(O)C4O)CC(=O)[C@@]3(C)C[C@H]12 (some centres not stated)
dose: 6.4 mg/kg/injection, schedule: Q01DX009 (ip), vehicle: saline
  T/C: 95 % of control
dose: 9.6 mg/kg/injection, schedule: Q01DX009 (ip), vehicle: saline
  T/C: 100 % of control
dose: 14.0 mg/kg/injection, schedule: Q01DX009 (ip), vehicle: saline
  T/C: 100 % of control
dose: 22.0 mg/kg/injection, schedule: Q01DX009 (ip), vehicle: saline
  T/C: 100 % of control
